Experiment [1] has as its system Pseudomonas aeruginosa ATCC27853. The experiment in a line: Antimicrobial susceptibility testing, 90% growth inhibitory concentration (IC90) determination. The class given is cell-based. The note with it: Iso-Sensitest broth, OD 600 nm over 16 h, 35±2° C., read-out: ATCC 27853 IC90. On the procedure:
(§1) 90% Growth Inhibitory Concentration (IC90) Determination The in vitro antimicrobial activity of the compounds was determined according to the following procedure: The assay used a 10-points Iso-Sensitest broth medium to measure quantitatively the in vitro activity of the compounds against Acinetobacter baumannii ATCC17961 and Pseudomonas aeruginosa ATCC27853. Stock compounds in DMSO were serially twofold diluted (e.g. range from 50 to 0.097 μM final concentration) in 384 wells microtiter plates and inoculated with 49 μl the bacterial suspension in Iso-Sensitest medium to have a final cell concentration of ˜5×10^(5) CFU/ml in a final volume/well of 50 ul/well. Microtiter plates were incubated at 35±2° C. Bacterial cell growth was determined with the measurement of optical density at λ=600 nm each 20 minutes over a time course of 16 h. Growth inhibition was calculated during the logarithmic growth of the bacterial cells with determination of the concentration inhibiting 50% (IC50) and 90% (IC90) of the growth. Table 2 provides the 90% growth inhibitory concentrations (IC90) in micromoles per liter of the compounds of present invention obtained against the strain Pseudomonas aeruginosa ATCC27853.

In experiment [2] the test system is Acinetobacter baumannii ATCC17961. Described as above. The class given is cell-based. Particulars: Iso-Sensitest broth, OD 600 nm over 16 h, 35±2° C., read-out: ATCC 17961 IC90. Here is the method: as §1, with “Table 1” for “Table 2”, “strain Acinetobacter baumannii ATCC17961.” for “strain Pseudomonas aeruginosa ATCC27853.”

Where a name gives a salt, the structure may show the parent alone.

Regarding `CCc1cc(Nc2nccn3c(-c4ccc(-c5c(C)nn(CCOC)c5C)c(F)c4F)cnc23)ccc1C(=O)NCC1CC[N+](C)(CC(N)=O)CC1` (stereo not drawn) [Example C5, N-[[1-(2-amino-2-oxo-ethyl)-1-methyl-piperidin-1-ium-4-yl]methyl]-4-[[3-[2,3-difluoro-4-[1-(2-methoxyethyl)-3,5-dimethyl-pyrazol-4-yl]phenyl]imidazo[1,2-a]pyrazin-8-yl]amino]-2-ethyl-benzamide; formate], the results for the IC90 in experiment [1] and in experiment [2] were 1900 nM and 680 nM, respectively.

For `CCc1cc(Nc2nccn3c(-c4ccc(-c5c(C)nn(CCOC)c5C)c(F)c4F)cnc23)ccc1C(=O)NCC1CC[N+](C)(CCO)CC1` (stereo not drawn) [Example C6, 4-[[3-[2,3-difluoro-4-[1-(2-methoxyethyl)-3,5-dimethyl-pyrazol-4-yl]phenyl]imidazo[1,2-a]pyrazin-8-yl]amino]-2-ethyl-N-[[1-(2-hydroxyethyl)-1-methyl-piperidin-1-ium-4-yl]methyl]benzamide; formate], the results for the IC90 in experiment [1] and in experiment [2] were 1200 nM and 440 nM, respectively.

As for `CCc1cc(Nc2nccn3c(-c4ccc(-c5c(C)nn(CCOC)c5C)c(F)c4F)cnc23)ccc1C(=O)NCC1CC[N+](C)(CC2CNC2)CC1` (stereo not drawn) [Example C7, N-[[1-(azetidin-3-ylmethyl)-1-methyl-piperidin-1-ium-4-yl]methyl]-4-[[3-[2,3-difluoro-4-[1-(2-methoxyethyl)-3,5-dimethyl-pyrazol-4-yl]phenyl]imidazo[1,2-a]pyrazin-8-yl]amino]-2-ethyl-benzamide; formic acid; formate], the IC90 in experiment [1] was 390 nM; in experiment [2], 320 nM.

The term IC90 denotes the concentration needed for an effect of 90%.

The values are drawn from patent publication US12617798B2, “Imidazopyrazne derivatives” (Hoffmann-La Roche Inc., priority 2020, dated 2026).
